From patent publication US20050208528A1, “Enhancement of the stability of oligonucleotides comprising phosphorothioate linkages by addition of water-soluble antioxidants” (ISIS Pharmaceuticals, Inc., priority 2001, published 2005)
Where a name gives a salt, the structure may show the parent alone. Read-outs that look alike come from different tables or passages of the source. Each block holds one compound with its values, some of them ahead of it. In the oligonucleotide strings, read from the 5' end, every base follows the letter of its sugar. An asterisk marks phosphorothioate; unmarked linkages are phosphodiester. Other units and linkages are bracketed, terminal groups are in braces. A string of capitals states the bases alone. d = 2'-deoxy (DNA)

Tests used:
ISIS 2302 [1] = test: Long-term protection of creams by antioxidants, 40° C. for 1 month; type: physicochemical; set-up: full PS-content: unit: %; details: for full PS-content: cream, 0.03% ISIS 2302, 40° C. 1 month, LC/MS or SAX, no antioxidants 45.1, no excipients 91.3; for Protection against desulfurization (in words): bi-phasic cream formulation
Protocol: (§1) A cream formulation was prepared containing 5.0 g BRIJ 58 (polyoxyethylene[20]cetyl ether), 0.03% ISIS 2302 and different concentrations of phenolic antioxidants.

ISIS 2302 [2] = test: Desulfurization in bi-phasic cream formulation with water-soluble and oil-soluble antioxidants, 40° C. for 6 days; type: physicochemical; details: for Full PS content (%): cream, 0.03% ISIS 2302, 40° C. 6 days, no additive 84.7
Protocol: The cream was heated at 40° C. for 6 days and the oligonucleotide was isolated by ethanol precipitation and analyzed for full PS content by SAX chromatography.

[3] = test system: phosphorothioate oligonucleotide (ISIS-2302); test: Desulfurization of phosphorothioate oligonucleotide in mono-phasic system with oil-soluble antioxidants (SAX chromatography); type: physicochemical; details: for Full PS content (area-% SAX): 0.5 g PEG-40-monostearate, 1.5 ml phosphate buffer pH 7.0, 1.5 mg ISIS-2302, 65° C. 20 hours, no antioxidants 51.0
Protocol: Polyethyleneglycol-40-monostearate (0.5 g), a water-soluble excipient which forms peroxides in the absence of antioxidants, was heated at 65° C. for 20 hours with 1.5 ml phosphate buffer, pH 7.0 and 1.5 mg phosphorothioate oligonucleotide (ISIS-2302) in the absence or presence of various oil-soluble antioxidants. Oligonucleotides were isolated by ethanol precipitation and phosphorothioate content was determined by strong anion exchange (SAX) chromatography.

ISIS 2302 [4] = test: Desulfurization in bi-phasic cream formulation with oil-soluble antioxidants, 40° C. for 2 days; type: physicochemical; details: for Full PS content (%): 0.03% ISIS 2302, 0 mg gives 83.9; for Full PS content (%) / Protection of phosphorothioate oligonucleotides against desulfurization (in words): 40° C. 2 days; for Protection of phosphorothioate oligonucleotides against desulfurization (in words): biphasic cream
Protocol: as §1

ICAM-1 [5] = details: C8161 human melanoma cells; cited from earlier work
HLA-A and HLA-B = details: versus HLA-A and HLA-B; cited from earlier work
[6] = Crohn's disease, rheumatoid arthritis, psoriasis, ulcerative colitis, kidney transplant rejection models; cited from earlier work
[7] = cited from earlier work
ICAM-1 [8] = details: cited from earlier work
C8161 cells = details: experimental metastasis assay, cited from earlier work
[9] = 5 mg antioxidant in 100 g cream
[10] = 10 mg antioxidant in 100 g cream
[11] = 25 mg antioxidant in 100 g cream
[12] = 50 mg antioxidant in 100 g cream
[13] = 75 mg antioxidant in 100 g cream
[14] = 100 mg antioxidant in 100 g cream
[15] = cream with 0.03% ISIS 2302, before heating

full PS-content (ISIS 2302 [1]; additive 0.01%): 61.2
full PS-content (ISIS 2302 [1]; additive 0.05%): 71.6
full PS-content (ISIS 2302 [1]; additive 0.2%): 72.5
full PS-content (ISIS 2302 [1]; additive 0.8%): 86.7
Compound: O=S(=O)(O)CCS [2-MESA, Na salt, 2-mercaptoethanesulfonic acid]

Full PS content (%) (ISIS 2302 [2]; additive 11.0 mg): 79.0%
Full PS content (area-% SAX) ([3]; 5 mg additive): 93.4 area-% SAX
Compound: Cc1cccc(C(C)(C)C)c1O [2-t-butyl-6-methylphenol]

full PS-content (ISIS 2302 [1]; additive 0.01%): 9.6
full PS-content (ISIS 2302 [1]; additive 0.05%): 49.4
full PS-content (ISIS 2302 [1]; additive 0.2%): 50.9
full PS-content (ISIS 2302 [1]; additive 0.8%): 80.1
Protection against desulfurization (in words) (ISIS 2302 [1]): inhibited desulfurization
Compound: N[C@@H](CCC(=O)N[C@@H](CS)C(=O)NCC(=O)O)C(=O)O [Glutathione]

full PS-content (ISIS 2302 [1]; additive 0.01%): 28.4
full PS-content (ISIS 2302 [1]; additive 0.05%): 30.8
full PS-content (ISIS 2302 [1]; additive 0.2%): 67.3
full PS-content (ISIS 2302 [1]; additive 0.8%): 81.9
Protection against desulfurization (in words) (ISIS 2302 [1]): inhibited desulfurization
Full PS content (%) (ISIS 2302 [2]; additive 0.05 mg): 89.6%
Full PS content (%) (ISIS 2302 [2]; additive 0.2 mg): 91.8%
Full PS content (%) (ISIS 2302 [2]; additive 0.4 mg): 93.6%
Full PS content (%) (ISIS 2302 [2]; additive 1.0 mg): 93.7%
Full PS content (%) (ISIS 2302 [2]; additive 6.1 mg): 93.0%
Full PS content (%) (ISIS 2302 [2]; additive 52.2 mg): 94.5%
Compound: N[C@@H](CS)C(=O)O [L-cysteine]

Full PS content (%) (ISIS 2302 [2]; additive 7.5 mg): 84.8%
Compound: Vitamin E-TPGS

More lines, now with the values behind:

Compound: O=S(=O)([O-])c1ccc2[nH]c(S)nc2c1.[Na+] [2-MBSA]
full PS-content (ISIS 2302 [1]; additive 0.01%): 78.7
full PS-content (ISIS 2302 [1]; additive 0.05%): 95.2
full PS-content (ISIS 2302 [1]; additive 0.2%): 96.1
full PS-content (ISIS 2302 [1]; additive 0.8%): 95.7
Protection against desulfurization (in words) (ISIS 2302 [1]): inhibited desulfurization
Full PS content (%) (ISIS 2302 [2]; additive 4.8 mg): 95.5%

Compound: Cc1cc(C(C)(C)C)c(O)c(C(C)(C)C)c1 [BHT, butylated hydroxytoluene]
Full PS content (%) (ISIS 2302 [2]; additive 5.2 mg): 77.3%
Full PS content (%) (ISIS 2302 [4]; [9]): 85.8%
Full PS content (%) (ISIS 2302 [4]; [10]): 82.1%
Full PS content (%) (ISIS 2302 [4]; [11]): 80.1%
Full PS content (%) (ISIS 2302 [4]; [12]): 85.4%
Full PS content (%) (ISIS 2302 [4]; [13]): 84.4%
Full PS content (%) (ISIS 2302 [4]; [14]): 85.2%
Protection of phosphorothioate oligonucleotides against desulfurization (in words) (ISIS 2302 [4]): do not provide protection

Compound: O=C(O)CCCCC1CCSS1 (stereo not drawn) [α-lipoic acid]
full PS-content (ISIS 2302 [1]; additive 0.02%): 80.2
full PS-content (ISIS 2302 [1]; additive 0.1%): 84.3
full PS-content (ISIS 2302 [1]; additive 0.45%): 84.7
full PS-content (ISIS 2302 [1]; additive 1.6%): 87.6
Protection against desulfurization (in words) (ISIS 2302 [1]): inhibited desulfurization

Compound: ISIS 1939: 2′-deoxyoligonucleotide, phosphorothioate backbone, 5′-CCC-CCA-CCA-CTT-CCC-CTC-TC-3′ (SEQ ID NO:2), targeted to 3′-UTR of human ICAM-1 gene (antisense dC*dC*dC*dC*dC*dA*dC*dC*dA*dC*dT*dT*dC*dC*dC*dC*dT*dC*dT*dC)
ICAM-1 expression (mRNA levels, northern blot) (ICAM-1 [5]): markedly reduced ICAM-1 expression

Compound: ISIS 2302: 2′-deoxyoligonucleotide, phosphorothioate backbone, 5′-GCC-CAA-GCT-GGC-ATC-CGT-CA-3′ (SEQ ID NO:1), targeted to 3′-UTR of human ICAM-1 gene (antisense GCCCAAGCTGGCATCCGTCA; DNA, all phosphorothioate, methylation of C not given here)
Specificity for target ICAM-1 over other potential nucleic acid targets (HLA-A and HLA-B): demonstrated specificity for its target ICAM-1
Anti-inflammatory effects in animal testing [6]: strong anti-inflammatory effects
Activity against Crohn's disease ([7]; humans): activity against Crohn's disease
Safety in humans ([7]; in vivo): good safety
Steroid-sparing effect ([7]; treated human subjects, five months post-treatment weaned from steroids and in remission): statistically significant steroid-sparing effect
PS content of the cream prior to heating (ISIS 2302 [2]; [15]): about 95%
ICAM-1 expression (ICAM-1 [8]; human epidermal carcinoma cells (A431)): inhibit ICAM-1 expression
ICAM-1 expression (ICAM-1 [8]; human keratinocytes): inhibit ICAM-1 expression
ICAM-1 expression (ICAM-1 [8]; human lung carcinoma cells (A549)): inhibit ICAM-1 expression
ICAM-1 expression (ICAM-1 [8]; human umbilical vein cells): inhibit ICAM-1 expression
Enhanced metastatic ability of C8161 cells resulting from TNF-α treatment (C8161 cells; TNF-α treated cells): eliminated the enhanced metastatic ability
Metastatic potential of C8161 cells (C8161 cells): decreased the metastatic potential
phosphorothioate content of the cream prior to heating (ISIS 2302 [4]; [15]): 95%
ICAM-1 expression (mRNA levels, northern blot) (ICAM-1 [5]): markedly reduced ICAM-1 expression

Compound: Vitamin E
Full PS content (%) (ISIS 2302 [2]; additive 7.4 mg): 83.7%
Protection from desulfurization (in words) (ISIS 2302 [2]; bi-phasic cream formulation): ineffective
Full PS content (area-% SAX) ([3]; 15 mg additive): 89.7 area-% SAX
Protection of phosphorothioate oligonucleotide against desulfurization (in words) ([3]; mono-phasic system): inhibit desulfurization
Full PS content (%) (ISIS 2302 [4]; [9]): 84.0%
Full PS content (%) (ISIS 2302 [4]; [10]): 81.9%
Full PS content (%) (ISIS 2302 [4]; [11]): 80.6%
Full PS content (%) (ISIS 2302 [4]; [12]): 78.6%
Full PS content (%) (ISIS 2302 [4]; [13]): 78.7%
Full PS content (%) (ISIS 2302 [4]; [14]): 76.3%
Protection of phosphorothioate oligonucleotides against desulfurization (in words) (ISIS 2302 [4]): do not provide protection
